In one data set the test system is Influenza A virus. Put plainly: Antiviral activity against oseltamivir-resistant Influenza A virus (A/Puerto Rico/8/1934(H1N1)) infected in MDCK cells at MOI of 10^-3 assessed as decrease in viral load after 18 hrs by immunofluorescence analysis. The data set is classed as functional, organism-based.
The nature of data set [1]: Selectivity index, ratio of CC50 for MDCK cells to IC50 for oseltamivir-resistant Influenza A virus (A/Puerto Rico/8/1934(H1N1)) infected in MDCK cells at MOI of 10^-3 after 18 hrs. The settings on record: dog, read-out: Ratio CC50/IC50. In kind it is toxicity, cell-based.

Consider `COc1ccc2cc(-c3c(C(=O)[O-])ccc(Oc4ccc(N)cc4)c3C(=O)[O-])ccc2c1.[Na+].[Na+]`, for which the IC50 with Influenza A virus is 1 µM. Besides, the selectivity ratio at 18 h in data set [1] was 12000.

In the case of `COc1ccc2cc(-c3c(C(=O)[O-])cccc3C(=O)[O-])ccc2c1.[Na+].[Na+]`, the IC50 in the data set with Influenza A virus was 8.8 µM. Moreover, in data set [1], the selectivity ratio at 18 h came to 1480.

As for `COc1ccc2cc(-c3c(C(=O)O)cc(Oc4ccc(N)cc4)cc3C(=O)O)ccc2c1`, the IC50 in the data set on Influenza A virus came out at 8 µM. In addition, the selectivity ratio at 18 h in data set [1] worked out at 1620.

Usually IC50 stands for the concentration that gives 50% inhibition.
